Measured values reported in US20050245563A1 (Millennium Pharmaceuticals, Inc., priority 2003, published 2005).

Target: T1, human Chk1 (GST-Chk1) (Homo sapiens, UniProt O14757)
T1 construct: made in house; host or cells: insect cells (baculovirus, Bac-to-Bac)
T1 sequence (O14757 1-476): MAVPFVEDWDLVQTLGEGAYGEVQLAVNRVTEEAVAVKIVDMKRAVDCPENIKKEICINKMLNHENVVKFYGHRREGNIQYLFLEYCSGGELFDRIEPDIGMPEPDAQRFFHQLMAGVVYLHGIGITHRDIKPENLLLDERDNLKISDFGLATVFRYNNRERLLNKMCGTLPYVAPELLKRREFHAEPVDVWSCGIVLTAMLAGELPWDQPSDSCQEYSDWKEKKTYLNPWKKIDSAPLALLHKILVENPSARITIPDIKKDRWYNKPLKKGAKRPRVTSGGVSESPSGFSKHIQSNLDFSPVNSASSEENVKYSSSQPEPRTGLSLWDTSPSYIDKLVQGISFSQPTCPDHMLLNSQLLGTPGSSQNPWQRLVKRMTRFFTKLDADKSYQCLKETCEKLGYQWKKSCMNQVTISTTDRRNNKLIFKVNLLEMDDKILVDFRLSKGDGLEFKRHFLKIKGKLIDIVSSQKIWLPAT
Assay: Chk1 FlashPlate kinase assay
Assay type: biochemical
Details: 8.7 nM GST-Chk1, 1 uM ATP, 33P incorporation into peptide substrate
Procedure: Recombinant human Chk1 was expressed as a fusion protein with glutathione S-transferase at the amino-terminus (GST-Chk1) using standard baculovirus vectors and (Bac-to-Bac®) insect cell expression system purchased from GIBCO™ Invitrogen. Recombinant protein expressed in insect cells was purified using glutathione sepharose (Amersham Biotech) using standard procedures described by the manufacturer.
Chk1 FlashPlate® Kinase Assay:
Assays (25 μL) contained 8.7 nM GST-Chk1, 10 mM MES, 0.1 mM ethylene glycol-bis(β-aminoethylether)-N,N,N′,N′-tetracetic acid (EGTA, pH 8.0), 2 mM DTT, 0.05% Tween 20, 3 uM peptide substrate (Biotin-ILSRRPSYRKILND-free acid) (SEQ ID NO: 1), 1 uM ATP, 0.4 uCi ^33P-γ-ATP (NEN), 4% DMSO. Reactions were incubated for 30 minutes at room temperature, terminated with 50 μL of 50 mM EDTA and 90 μL were transferred to streptavidin-coated FlashPlates® (NEN) and incubated for 1 hour at room temperature. Plates were washed with phosphate buffered salaine containing 0.01% Tween-20 and 10 mM sodium pyrophosphate. Plates were dried, sealed with Topseal™ (NEN) and amount of ^33P incorporated into the peptide substate measure using a Packard Topcount® NXT™ scintillation counter with standard settings.

IC50, < 1000 nM:
Cc1[nH]nc2c1c(=O)n(CCCNC(=O)CCc1ccccc1)c1ccccc21 [Example 62, N-[3-(3-Methyl-4-oxo-2,4-dihydro-pyrazolo[4,3-c]quinolin-5-yl)-propyl]-3-phenyl-propionamide]
Cc1[nH]nc2c1c(=O)n(CCCNC(=O)c1ccc(F)cc1F)c1ccccc21 [Example 63, 2,4-Difluoro-N-[3-(3-methyl-4-oxo-2,4-dihydro-pyrazolo[4,3-c]quinolin-5-yl)-propyl]-benzamide]
Cc1[nH]nc2c1c(=O)n(CCCNC(=O)c1ccc(F)cc1)c1ccccc21 [Example 64, 4-Fluoro-N-[3-(3-methyl-4-oxo-2,4-dihydro-pyrazolo[4,3-c]quinolin-5-yl)-propyl]-benzamide]
Cc1[nH]nc2c1c(=O)n(CCCNC(=O)C1CCCCC1)c1ccccc21 [Example 65, Cyclohexanecarboxylic acid [3-(3-methyl-4-oxo-2,4-dihydro-pyrazolo[4,3-c]quinolin-5-yl)-propyl]-amide]
Cc1n[nH]c2c1c(=O)n(CCCNC(=O)Nc1ccccc1)c1ccccc21 [Example 66, 1-[3-(3-Methyl-4-oxo-1,4-dihydro-pyrazolo[4,3-c]quinolin-5-yl)-propyl]-3-phenyl-urea]
Cc1n[nH]c2c1c(=O)n(CCCCNC(=O)Nc1ccccc1)c1ccc(Br)cc21 [Example 67, 1-[4-(8-Bromo-3-methyl-4-oxo-1,4-dihydro-pyrazolo[4,3-c]quinolin-5-yl)-butyl]-3-phenyl-urea]
Cc1[nH]nc2c1c(=O)n(CCCNC(=O)c1ccc(C#N)cc1)c1ccccc21 [Example 68, 4-Cyano-N-[3-(3-methyl4-oxo-2,4-dihydro-pyrazolo[4,3-c]quinolin-5-yl)-propyl]-benzamide]
COc1ccc(C(=O)NCCCn2c(=O)c3c(C)[nH]nc3c3ccccc32)cc1 [Example 69, 4-Methoxy-N-[3-(3-methyl-4-oxo-2,4,5a,9a-tetrahydro-pyrazolo[4,3-c]quinolin-5-yl)-propyl]-benzamide]
Cc1[nH]nc2c1c(=O)n(CCCN)c1cc(Cl)ccc21 [Example 70, 5-(3-Amino-propyl)-7-chloro-3-methyl-2,5-dihydro-pyrazolo[4,3-c]quinolin-4-one]
Cc1[nH]nc2c1c(=O)n(CCCNC(=O)c1cccc(Cl)c1)c1ccccc21 [Example 71, 3-Chloro-N-[3-(3-methyl-4-oxo-2,4-dihydro-pyrazolo[4,3-c]quinolin-5-yl)-propyl]-benzamide]
Cc1[nH]nc2c1c(=O)n(CCCNC(=O)c1ccc(C(F)(F)F)cc1)c1ccccc21 [Example 72, N-[3-(3-Methyl-4-oxo-2,4-dihydro-pyrazolo[4,3-c]quinolin-5-yl)-propyl]-4-trifluoromethyl-benzamide]
Cc1n[nH]c2c1c(=O)n(CCCNC(=O)c1ccccc1)c1ccccc21 [Example 73, N-[3-(3-Methyl-4-oxo-1,4-dihydro-pyrazolo[4,3-c]quinolin-5-yl)-propyl]-benzamide]
Cc1[nH]nc2c1c(=O)n(CCCNC(=O)N1CCOCC1)c1ccccc21 [Example 74, Morpholine-4-carboxylic acid [3-(3-methyl-4-oxo-2,4-dihydro-pyrazolo[4,3-c]quinolin-5-yl)-propyl]-amide]
Cc1[nH]nc2c1c(=O)n(CCCNC(=O)c1ccc(Cl)cc1)c1cc(Cl)ccc21 [Example 75, 4-Chloro-N-[3-(7-chloro-3-methyl-4-oxo-2,4-dihydro-pyrazolo[4,3-c]quinolin-5-yl)-propyl]-benzamide]
Cc1[nH]nc2c1c(=O)n(CCCNC(=O)c1ccc(Cl)c(Cl)c1)c1ccccc21 [Example 76, 3,4-Dichloro-N-[3-(3-methyl-4-oxo-2,4-dihydro-pyrazolo[4,3-c]quinolin-5-yl)-propyl]-benzamide]
